Experimental data taken from PubChem BioAssay (NCI).
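Compound exposure: 48 hours, 5 concentrations, 96-well plates. TGI denotes the concentration required for complete inhibition of growth.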

Assays:
Assay in all cases: inhibition of tumour cell growth, NCI panel, 48 h
UO-31 renal = test system: UO-31 renal
SK-OV-3 ovarian = test system: SK-OV-3 ovarian
786-0 renal = test system: 786-0 renal
DMS 273 small cell lung = test system: DMS 273 small cell lung
HL-60(TB) leukemia = test system: HL-60(TB) leukemia
UACC-62 melanoma = test system: UACC-62 melanoma
SK-MEL-2 melanoma = test system: SK-MEL-2 melanoma
SNB-75 CNS = test system: SNB-75 CNS
ACHN renal = test system: ACHN renal
OVCAR-4 ovarian = test system: OVCAR-4 ovarian
XF 498 CNS = test system: XF 498 CNS
DLD-1 colon = test system: DLD-1 colon
DMS 114 small cell lung = test system: DMS 114 small cell lung
HOP-62 NSCLC = test system: HOP-62 NSCLC
SR leukemia = test system: SR leukemia
HOP-92 NSCLC = test system: HOP-92 NSCLC
M19-MEL melanoma = test system: M19-MEL melanoma
COLO 205 colon = test system: COLO 205 colon
M14 melanoma = test system: M14 melanoma
MOLT-4 leukemia = test system: MOLT-4 leukemia
RPMI-8226 leukemia = test system: RPMI-8226 leukemia
SF-539 CNS = test system: SF-539 CNS
LXFL 529 NSCLC = test system: LXFL 529 NSCLC
NCI-H23 lung = test system: NCI-H23 lung
K-562 leukemia = test system: K-562 leukemia
A498 renal = test system: A498 renal
MALME-3M melanoma = test system: MALME-3M melanoma
HCT-116 colon = test system: HCT-116 colon
NCI-H226 lung = test system: NCI-H226 lung
RXF-631 renal = test system: RXF-631 renal
CCRF-CEM leukemia = test system: CCRF-CEM leukemia
SK-MEL-28 melanoma = test system: SK-MEL-28 melanoma
SN12C renal = test system: SN12C renal
SF-268 CNS = test system: SF-268 CNS
HCC-2998 colon = test system: HCC-2998 colon
NCI-H522 lung = test system: NCI-H522 lung
IGROV1 ovarian = test system: IGROV1 ovarian
CAKI-1 renal = test system: CAKI-1 renal
EKVX NSCLC = test system: EKVX NSCLC
SW-620 colon = test system: SW-620 colon
SNB-78 CNS = test system: SNB-78 CNS
U251 CNS = test system: U251 CNS
HT29 colon = test system: HT29 colon
UACC-257 melanoma = test system: UACC-257 melanoma
SF-295 CNS = test system: SF-295 CNS
HCT-15 colon = test system: HCT-15 colon
SK-MEL-5 melanoma = test system: SK-MEL-5 melanoma
OVCAR-5 ovarian = test system: OVCAR-5 ovarian
SNB-19 CNS = test system: SNB-19 CNS
TK-10 renal = test system: TK-10 renal
RXF 393 renal = test system: RXF 393 renal
KM20L2 colon = test system: KM20L2 colon
KM12 colon = test system: KM12 colon
NCI-H460 lung = test system: NCI-H460 lung
A549 NSCLC = test system: A549 NSCLC
LOX IMVI melanoma = test system: LOX IMVI melanoma
OVCAR-3 ovarian = test system: OVCAR-3 ovarian
OVCAR-8 ovarian = test system: OVCAR-8 ovarian

Measured: TGI

CNC1CC(n2cc(C)c(=O)[nH]c2=O)OC1CO (centres undefined)
> 100 µM: UO-31 renal | SK-OV-3 ovarian | 786-0 renal | DMS 273 small cell lung | HL-60(TB) leukemia | UACC-62 melanoma | SK-MEL-2 melanoma | SNB-75 CNS | ACHN renal | OVCAR-4 ovarian | XF 498 CNS | DLD-1 colon | DMS 114 small cell lung | HOP-62 NSCLC | SR leukemia | HOP-92 NSCLC | M19-MEL melanoma | COLO 205 colon | M14 melanoma | MOLT-4 leukemia | RPMI-8226 leukemia | SF-539 CNS | LXFL 529 NSCLC | NCI-H23 lung | K-562 leukemia | A498 renal | MALME-3M melanoma | HCT-116 colon | NCI-H226 lung | RXF-631 renal | CCRF-CEM leukemia | SK-MEL-28 melanoma | SN12C renal | SF-268 CNS | HCC-2998 colon | NCI-H522 lung | IGROV1 ovarian | CAKI-1 renal

CNC(=O)N(CCCCC(NC(C)=O)C(=O)NCc1ccccc1)Cc1ccccc1 (centres undefined)
> 100 µM: EKVX NSCLC | SW-620 colon | SNB-78 CNS | UO-31 renal | SK-OV-3 ovarian | 786-0 renal | U251 CNS | DMS 273 small cell lung | HT29 colon | UACC-62 melanoma | SK-MEL-2 melanoma | SNB-75 CNS | ACHN renal | OVCAR-4 ovarian | XF 498 CNS | DLD-1 colon | DMS 114 small cell lung | UACC-257 melanoma | HOP-62 NSCLC | HOP-92 NSCLC | M19-MEL melanoma | COLO 205 colon | SF-295 CNS | HCT-15 colon | SK-MEL-5 melanoma | M14 melanoma | MOLT-4 leukemia | OVCAR-5 ovarian | RPMI-8226 leukemia | SNB-19 CNS | SF-539 CNS | TK-10 renal | LXFL 529 NSCLC | NCI-H23 lung | K-562 leukemia | A498 renal | MALME-3M melanoma | HCT-116 colon | NCI-H226 lung | RXF 393 renal | RXF-631 renal | CCRF-CEM leukemia | KM20L2 colon | KM12 colon | NCI-H460 lung | A549 NSCLC | SK-MEL-28 melanoma | SN12C renal | LOX IMVI melanoma | SF-268 CNS | HCC-2998 colon | NCI-H522 lung | IGROV1 ovarian | OVCAR-3 ovarian | CAKI-1 renal | OVCAR-8 ovarian
